Structures are written as SMILES. Values after ≈ are worked out from the molar mass of the structure shown.

One series relates to L. major promastigotes. The experiment in a line: Leishmania promastigote assay.
The test system of series [1] is panel of 10 different non-fastidious bacteria. The experiment in a line: Screening against panel of non-fastidious bacteria. The conditions noted are these: Gram-positive pathogens.
The test system of series [2] is Bacteroides fragilis, Clostridium perfringens, Clostridium difficele. In kind it is cell-based. Particulars: single concentration of compound (100 μM).
For series [3], the system named is Staphylococcus aureus ATCC33591(resistant to methicillin). The experiment in a line: MIC determination in broth microdilution assay. The conditions noted are these: B: Staphylococcus aureus ATCC33591(resistant to methicillin). A general note: Dilution methods test growth across graded concentrations, often in twofold steps.
In series [4] the test system is Staphylococcus aureus ATCC29213. The experiment in a line: MIC determination in broth microdilution assay. Particulars: A: Staphylococcus aureus ATCC29213.
Series [5] has as its system Enterococcus faecalis ATCC29212. The experiment in a line: MIC determination in broth microdilution assay. Particulars: D: Enterococcus faecalis ATCC29212.
Series [6] concerns Streptococcus pneumoniae #998 (clinical isolate). The experiment in a line: MIC determination in broth microdilution assay. The conditions noted are these: F: Streptococcus pneumoniae #998.
A further series concerns Eschericia coli ESS. The experiment in a line: MIC determination in broth microdilution assay. Particulars: for MIC: H: Eschericia coli ESS.
The subject of series [7] is Enterococcus faecium #17501 (vancomycin-resistant clinical isolate). The experiment in a line: MIC determination in broth microdilution assay. Particulars: E: Enterococcus faecium #17501 (vancomycin-resistant).
The subject of a further series is S.aureus ATCC33591. The conditions noted are these: time-kill curve FIG. 2, S.aureus ATCC33591.
The subject of series [8] is dihydroorotate dehydrogenase (DHODH). The experiment in a line: DHODH assay. Particulars: at 10 μM. In kind it is biochemical. The protocol:
100 μl chalcone or 0.1 M Tris-HCl pH 8.0 is added to a well in a 96-wells microtiter plate. Then 50 μl enzyme dilution is added. The microtiter plate is placed in the Powerwavex340 and the enzymatic reactions starts when adding 100 μl assay mixture. The reaction are measured every 20 sec. for 10 min. The samples with chalcones are compared with the samples with 0.1 M Tris-HCl pH 8.0 and the percent inhibition is calculated.
Enzyme dilution: The solution of recombinant purified enzyme is dissolved in 0.1 M Tris-HCl pH 8 to give an initial velocity of 0.04-0.05 ΔA/min.
2,6-dichlorophenolindophenol (DCIP)-stock solution: 40 mg DCIP and 10 ml 99% Ethanol are mixed for 10 min at RT. Then 100 μl 1.0 M Tris-HCl pH 8 and miliQ H2O are added to a final volume of 100 ml. The A600 of the DCIP-stock solution are measured in a microtiter plate on the Powerwavex340 (Bio-Tek instruments,Inc.)
[…]: 25 mM dihydroorotate stock-solution is prepared by first dissolving in the same amount of mol NaOH and then miliQ H2O is added to the final volume.
Assay mix (10 ml solution): 600 μl of DHODH-stock solution and X ml (depending on the A600 value of stock-solution) DCIP to a final A600=2.5 are mixed. Then 0.1 M Tris-HCl pH 8.0 are added to a final volume of 10 ml.
Preparation of compound soluton: A 10 mM stock-solution of compound (e.g. a chalcone derivative) is made in dimethylsulfoxid (DMSO). The compound is then diluted in 0.1 M Tris-HCl pH 8 to the test concentrations. The final DMSO concentration in the sample is 10%

The test system of the next series is S.aureus ATCC29213. Particulars: time-kill curve FIG. 3, S.aureus ATCC29213.
The subject of series [9] is Plasmodium falciparum 3D7. The experiment in a line: Plasmodium falciparum assay. In kind it is cell-based. The conditions noted are these: Plasmodium falciparum 3D7 (Table 2); read-out: IC50.
Another series concerns Plasmodium berghei K173. Particulars: NMRI female mice; for effect on development of the infection: multiple oral administrations, FIG. 7.
Another series can be described thus: Pharmacokinetic studies. Particulars: in mice. In kind it is in vivo, mice. As to the method:
Samples of serum were taken at defined timepoints.
The supernatant was used for the analysis.
The flow rate was […], injection volume 10 μl.

Series [10] in a line: Determination of metabolic stability (liver microsomes). In kind it is in vitro ADME. Particulars: rat liver microsomes, 20 μM, 15 min. The protocol: Determination of Metabolic Stability
Incubations were performed with Wistar rat liver microsomes (0.25 mg/ml) in 2% sodium bicarbonate solution. NADP (0.13 mg/ml), glucose-6-phosphate (0.63 mg/ml) and glucose-6-phosphate dehydrogenase (0.38 units/ml) were used as NADPH generation system and UDPGA (0.48 mg/ml) was added to include the phase II reaction, glucuronic acid conjugation, in the assay. After 5 minutes of pre-incubation the reaction was started by addition of the test article to give a final concentration of 20 μM. Samples were incubated for 15 min at 37° C. and the reactions were terminated by addition of equal volumes of acetonitrile. Blank incubations were performed at the same concentration but without addition of microsomes. Both blank and microsome-containing samples were made in replicats of three. Prior to analysis samples were centrifuged for 10 min. at 3500 rpm,HPLC system:
Initial conditions were 40% mobile phase A (acetonitrile) and 60% mobile phase B (10 mM ammonium acetate pH 9.5). During the first 20 minutes, the mobile phase was changed via a linear gradient to 90% A and 10% B. This was followed by a 5 minutes linear gradient to initial conditions, which were maintained for 5 min. The flow rate was 0.20 m)/min and injection volume 10 μl.

Series [11] relates to Eschericia coli ATCC25922. The experiment in a line: MIC determination in broth microdilution assay.

A word on the IC50: it is the point on the concentration scale where inhibition reaches its midpoint. With `COc1ccc(C(=O)/C=C/c2cc(-c3ccccc3OC)ccc2OCCN(C)C)c(F)c1` [Compound C015, (E)-3-[4-(2-Dimethylamino-ethoxy)-2′-methoxy-biphenyl-3-yl]-1-(2-fluoro-4-methoxy-phenyl)-propenone], in the series on L. major promastigotes (L. major), half-maximal inhibition (IC50) required 100 nM. Besides, the “potency against Gram-positive pathogens in comparison with Licochalcone A” value (“potency against Gram-positive pathogens” for short) in series [1] is listed as “increased potency”. Besides, in series [2], the “activity against anaerobic bacteria” value is recorded as “activity against all microorganisms within the test panel”.

The MIC is the smallest concentration in the dilution series that meets the test's criterion for growth inhibition. As to `COc1ccc(C(=O)/C=C/c2cc(-c3cc(C)cc(C)c3)ccc2OCCN(C)C)cc1` [Compound C023, (E)-3-[4-(2′-Dimethylamino-ethoxy)-3′,5′-dimethyl-biphenyl-3-yl]-1-(4-methoxy-phenyl)-propenone], the MIC in series [3] is 4.7 µM (≈ 2.02 µg/mL); in series [4], 4.7 µM (≈ 2.02 µg/mL); in series [5], 4.7 µM (≈ 2.02 µg/mL); in series [6] it was 18.8 µM (≈ 8.08 µg/mL); against Eschericia coli ESS it was 9.4 µM (≈ 4.04 µg/mL); in series [7], 4.7 µM (≈ 2.02 µg/mL). For the same compound, the MIC in the series on S.aureus ATCC33591 stood at 9.4 µM (≈ 4.04 µg/mL). The “potency against Gram-positive pathogens” value in [1] was “increased potency”. Moreover, the “bactericidal action (CFU counts per ml above the MIC)” value with S.aureus ATCC33591 is on record as “bactericidal”.

Consider `COc1ccc(C(=O)/C=C/c2cc(-c3cc(C)cc(C)c3)ccc2OCCN(C)C)c(OC)c1OC` [Compound C025, (E)-3-[4-(2-Dimethylamino-ethoxy)-3′,5′-dimethyl-biphenyl-3-yl]-1-(2,3,4-trimethoxy-phenyl)-propenone], for which the “activity against anaerobic bacteria” value in series [2] is recorded as “activity against all microorganisms within the test panel”.

In the case of `COc1ccc(C(=O)/C=C/c2cc(-c3cc(C)cc(C)c3)ccc2OCCN(C)C)c(Cl)c1` [Compound C026, (E)-1-(2-Chloro-4-methoxy-phenyl)-3-[4-(2-dimethylamino-ethoxy)-3′,5′-dimethyl-biphenyl-3-yl]-propenone], in series [2], the “activity against anaerobic bacteria” value is on record as “activity against all microorganisms within the test panel”. For the same compound, in [8], the “Inhibition of DHODH” value stood at 19%.

As for `COc1ccc(C(=O)/C=C/c2cc(C(C)(C)C)cc(C(C)(C)C)c2OCCN(C)C)c(F)c1` [Compound C028, (E)-3-[3,5-Di-tert-butyl-2-(2-dimethylamino-ethoxy)-phenyl]-1-(2-fluoro-4-methoxy-phenyl)-propenone], in [2], the “activity against anaerobic bacteria” value is listed as “activity against all microorganisms within the test panel”. The “Inhibition of DHODH” value in series [8] is reported as 23%.

Turning to `CCN(CC)Cc1ccccc1C(=O)/C=C/c1cc(-c2cc(C)cc(C)c2)ccc1OCCN(C)C` [Compound C030, (E)-1-(2-Diethylaminomethyl-phenyl)-3-[4-(2-dimethylamino-ethoxy)-3′,5′-dimethyl-biphenyl-3-yl]-propenone], the “potency against Gram-positive pathogens” value in [1] is on record as “increased potency”. In the series on S.aureus ATCC29213, the MIC came to 18.8 µM (≈ 9.11 µg/mL) and the “bactericidal action (CFU counts per ml above the MIC)” value was “bactericidal”.

For `Cc1ccccc1-c1ccc(OCCN(C)C)c(/C=C/C(=O)c2ccccc2CN(C)C)c1` [Compound C035, (E)-3-[4-(2-Dimethylamino-ethoxy)-2′-methyl-biphenyl-3-yl]-1-(2-dimethylaminomethyl-phenyl)-propenone], in series [9], the IC50 was determined as 100 nM. The effect on parasitaemia result in the series on Plasmodium berghei K173 (multiple intra venous administrations, FIG. 6) was “significant decrease in the parasitaemia”.

Take `CN(C)CCCOc1ccc(C(C)(C)C)cc1/C=C/C(=O)c1ccccc1NS(=O)(=O)c1ccccc1` [Compound C042, N-(2-{3-[5-tert-Butyl-2-(3-dimethylamino-propoxy)-phenyl]-(E)-acryloyl}-phenyl)-benzenesulfonamide]: the IC50 in the series on L. major promastigotes (Leishmania major) was determined as 200 nM. Moreover, the “potency against Gram-positive pathogens” value in series [1] is “increased potency”. Further, the “activity against anaerobic bacteria” value in series [2] is given as “activity against all microorganisms within the test panel”.

Usually bioavailability stands for dose-corrected exposure relative to a reference, in per cent. Compound `COc1ccc(C(=O)/C=C/c2cccc(OCCN(C)C)c2)c(OC)c1OC` [Compound C043, (E)-3-[3-(2-Dimethylamino-ethoxy)-phenyl]-1-(2,3,4-trimethoxy-phenyl)-propenone] displayed a bioavailability in “Pharmacokinetic studies” of 42%.

Regarding `Cc1cc(C)cc(-c2ccc(OCCN(C)C)c(/C=C/C(=O)c3ccccc3NCCN(C)C)c2)c1` [Compound C074, (E)-3-[4-(2-Dimethylamino-ethoxy)-3′,5′-dimethyl-biphenyl-3-yl]-1-[2-(2-dimethylamino-ethylamino)-phenyl]-propenone], in [10], the “Metabolic turn-over in vitro” value came to 7%. The MIC in [3] worked out at 9.4 µM (≈ 4.57 µg/mL); in [4], 9.4 µM (≈ 4.57 µg/mL); in series [11] (G: Eschericia coli ATCC25922), 9.4 µM (≈ 4.57 µg/mL); in series [5], 9.4 µM (≈ 4.57 µg/mL); with Eschericia coli ESS, 4.7 µM (≈ 2.28 µg/mL); in series [7] it was 9.4 µM (≈ 4.57 µg/mL). In addition, the “activity against E coli ATCC25922” value in series [11] is on record as “high activity”. For the same compound, the “activity against anaerobic bacteria” value in series [2] is listed as “activity against all microorganisms within the test panel”. Further, the “activity against ESS strain of E.coli” value in the series on Eschericia coli ESS was “high activity”.

For `Cc1cc(C)cc(-c2ccc(OCCN(C)C)c(C=CC(=O)c3cccc(F)c3)c2)c1` [Compound C079, (E)-3-[4-(2-Dimethylamino-ethoxy)-3′,5′-dimethyl-biphenyl-3-y]-1-(3-fluoro-phenyl)-propenone], in [2], the “activity against anaerobic bacteria” value was “activity against all microorganisms within the test panel”.

For the compound `COc1ccc(C(=O)/C=C/c2cc(-c3ccccc3C)ccc2OCCN(C)C)c(CN(C)C)c1` [Compound C114, (E)-3-[4-(2-Dimethylamino-ethoxy)-2′-methyl-biphenyl-3-yl]-1-(2-imethylaminomethyl-4-methoxy-phenyl)-propenone], in the series with Plasmodium berghei K173, the “effect on development of the infection” value is recorded as “inhibit the development of the infection”.

Turning to `Cc1ccccc1-c1ccc(OCCN(C)C)c(/C=C/C(=O)c2ccccc2CN2CCCC2)c1` [Compound C119, (E)-3-[4-(2-Dimethylamino-ethoxy)-2′-methyl-biphenyl-3-yl]-1-(2-pyrrolidin-1-ylmethyl-phenyl)-propenone], the “effect on development of the infection” value in the series on Plasmodium berghei K173 was “inhibit the development of the infection”.

Consider `CN(C)CCOc1ccc(-c2ccccc2Cl)cc1/C=C/C(=O)c1ccccc1CN(C)C` [Compound C128, (E)-3-[2′-Chloro-4-(2-dimethylamino-ethoxy)-biphenyl-3-yl]-1-(2-dimethylaminomethyl-phenyl)-propenone], for which the “effect on development of the infection” value with Plasmodium berghei K173 was “inhibit the development of the infection”.

(Values after patent US7423181B2, “Aminoalkoxy-functional chalcones” (Lica Pharmaceuticals A/S, priority 2002, dated 2008).)
